Reference: ChEMBL document CHEMBL2073955, “Proton/peptide cotransporter (PEPT 2) from human kidney: functional characterization and chromosomal localization” (Biochim Biophys Acta, 1995)
Each block holds one molecule with its values, some of them ahead of it. Where a SMILES comes first, the peptide text is derived from it.

Assays:
Assay type in all cases: functional, cell-based
[1] = molecular target: T1, Solute carrier family 15 member 1 (Homo sapiens, UniProt P46059); assay: TP_TRANSPORTER: inhibition of Gly-Sar uptake in PEPT1-expressing HeLa cells
T1 sequence (P46059 whole entry): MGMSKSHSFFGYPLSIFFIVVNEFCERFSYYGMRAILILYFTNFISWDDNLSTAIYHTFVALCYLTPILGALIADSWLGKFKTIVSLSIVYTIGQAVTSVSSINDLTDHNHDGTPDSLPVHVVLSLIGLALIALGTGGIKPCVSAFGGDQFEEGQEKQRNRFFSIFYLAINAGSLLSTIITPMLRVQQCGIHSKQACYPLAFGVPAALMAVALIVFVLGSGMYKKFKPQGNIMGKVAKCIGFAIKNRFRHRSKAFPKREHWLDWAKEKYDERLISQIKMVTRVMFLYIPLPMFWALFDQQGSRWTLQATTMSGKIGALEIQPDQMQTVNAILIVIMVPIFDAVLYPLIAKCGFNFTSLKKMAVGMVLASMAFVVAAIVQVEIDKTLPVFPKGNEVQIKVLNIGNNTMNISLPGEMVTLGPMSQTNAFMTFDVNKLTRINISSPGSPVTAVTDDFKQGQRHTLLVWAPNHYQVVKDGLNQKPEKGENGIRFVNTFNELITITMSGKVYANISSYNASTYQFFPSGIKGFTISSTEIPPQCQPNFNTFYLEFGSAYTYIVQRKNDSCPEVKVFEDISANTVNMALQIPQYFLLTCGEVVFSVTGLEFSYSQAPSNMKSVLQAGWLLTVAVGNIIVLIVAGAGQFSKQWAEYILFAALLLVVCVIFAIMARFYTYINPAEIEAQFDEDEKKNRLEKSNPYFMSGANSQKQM

[2] = molecular target: T2, Solute carrier family 15 member 2 (Homo sapiens, UniProt Q16348); assay: TP_TRANSPORTER: inhibition of Gly-Sar uptake in PEPT2-expressing HeLa cells
T2 sequence (Q16348 whole entry): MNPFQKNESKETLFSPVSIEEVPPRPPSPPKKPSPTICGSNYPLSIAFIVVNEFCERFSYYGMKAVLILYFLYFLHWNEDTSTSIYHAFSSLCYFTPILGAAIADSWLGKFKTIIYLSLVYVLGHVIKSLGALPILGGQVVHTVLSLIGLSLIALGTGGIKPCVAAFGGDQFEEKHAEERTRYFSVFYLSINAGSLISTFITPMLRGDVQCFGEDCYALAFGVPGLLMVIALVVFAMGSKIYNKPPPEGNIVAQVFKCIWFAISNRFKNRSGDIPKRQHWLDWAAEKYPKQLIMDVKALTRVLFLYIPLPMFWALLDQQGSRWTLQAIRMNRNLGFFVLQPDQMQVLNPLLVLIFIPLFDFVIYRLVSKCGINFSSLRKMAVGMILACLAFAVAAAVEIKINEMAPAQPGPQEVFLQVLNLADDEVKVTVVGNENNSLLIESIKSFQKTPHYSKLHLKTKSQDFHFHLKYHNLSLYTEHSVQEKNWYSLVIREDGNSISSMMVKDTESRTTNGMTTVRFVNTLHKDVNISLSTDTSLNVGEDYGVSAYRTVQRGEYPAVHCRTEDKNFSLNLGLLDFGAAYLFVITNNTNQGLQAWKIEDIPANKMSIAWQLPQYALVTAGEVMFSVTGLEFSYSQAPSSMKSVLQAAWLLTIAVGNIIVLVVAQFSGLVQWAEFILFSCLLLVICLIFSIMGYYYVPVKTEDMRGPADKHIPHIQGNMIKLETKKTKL

[3] = substrate: CN(CC(=O)O)C(=O)CN; assay: TP_TRANSPORTER: uptake in PEPT2-expressing HeLa cells

Molecule: C[C@H](N)C(=O)N[C@@H](CC(=O)O)C(=O)O (H-Ala-Asp-OH)
- Ki [1]: 78 µM
- Ki [2]: 18 µM

Molecule: C[C@H](NC(=O)[C@@H](N)CCCCN)C(=O)O (H-Lys-Ala-OH)
- Ki [1]: 419 µM
- Ki [2]: 23 µM

Molecule: NCCCC[C@H](NC(=O)[C@@H](N)CC(=O)O)C(=O)O (H-Asp-Lys-OH)
- Ki [1]: 108 µM
- Ki [2]: 8 µM

B1: Solute carrier family 15 member 2 (Homo sapiens), Q16348 (protein)
chain: T2 sequence (Q16348 whole entry)
- Km [3]: 74 µM

More lines, in order of falling Ki [1], values ahead:

- Ki [1]: 117 µM
- Ki [2]: 11 µM
Molecule: C[C@H](N)C(=O)N[C@@H](CCCCN)C(=O)O (H-Ala-Lys-OH)

- Ki [1]: 78 µM
- Ki [2]: 6 µM
Molecule: C[C@H](N)C(=O)N[C@@H](C)C(=O)O (H-Ala-Ala-OH)
